Legend:
[1] = system: U-87 MG cells; test: Flow cytometry; type: cell-based, human; conditions: IC50 concentrations, 24 h
[2] = system: U-87 MG glioma cells; test: CCK-8 cell viability assay, U-87 MG; type: cell-based, human; conditions: U-87 MG glioma / glioblastoma cells

| SMILES | induction of apoptosis (Annexin V-FITC/PI, in words) [1] | cytotoxic activity (in words) [2] |
| --- | --- | --- |
| COc1cccc2c1C(=O)c1c(O)c3c(c(O)c1C2=O)C[C@@](O)(C(=O)CO)C[C@@H]3O[C@H]1C[C@H](N)[C@H](O)[C@H](C)O1 [DOX, doxorubicin] | induce apoptosis | – |
| COc1c(O)cc2ccc3cc(O)ccc3c2c1OC [compound 6, nudol] | – | no cytotoxic activity |
| COc1c(O)cc2c(c1OC)-c1ccc(O)cc1CC2 [compound 7, erianthridin] | – | no cytotoxic activity |
